# Measured values: patent US8957070B2, “Glucokinase activator compounds, methods of activating glucokinase and methods of treating diabetes and obesity” (Takeda Pharmaceutical Company Limited, priority 2005, dated 2015)
# Columns and labels:
# [1] = molecular target: T1, GST-hLGK1 (human liver type GK) (Homo sapiens, UniProt P35557); assay: Determination of GK activity value (Mant-ATP conversion, capillary electrophoresis); assay type: biochemical; conditions: concentration necessary for activating 50% of the maximum GK activity value, 37° C., 60 min, D-glucose added
# T1 construct: with a BamHI site added to immediately before the initiation codon; made in house; host or cells: Escherichia coli BL21
# T1 sequence (P35557 1-464 isoform P35557-3): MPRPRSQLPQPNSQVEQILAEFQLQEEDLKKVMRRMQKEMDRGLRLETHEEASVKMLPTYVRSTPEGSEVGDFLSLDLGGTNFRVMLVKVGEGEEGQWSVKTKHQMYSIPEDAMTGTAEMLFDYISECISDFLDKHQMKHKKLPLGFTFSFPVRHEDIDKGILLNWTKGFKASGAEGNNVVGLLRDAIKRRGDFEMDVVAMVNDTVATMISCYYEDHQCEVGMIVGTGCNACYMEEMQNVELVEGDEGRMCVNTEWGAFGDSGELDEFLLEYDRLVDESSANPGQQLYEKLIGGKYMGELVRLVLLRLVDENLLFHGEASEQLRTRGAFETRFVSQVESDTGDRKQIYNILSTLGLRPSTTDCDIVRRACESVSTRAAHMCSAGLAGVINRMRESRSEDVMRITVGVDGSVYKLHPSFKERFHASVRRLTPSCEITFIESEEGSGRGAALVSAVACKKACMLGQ
# Experimental: A solution (5 μL) of test compound in 50% dimethyl sulfoxide was added to each well of 384 well black plate (Nalge Nunc International K.K.). Then, a solution (35 μL) obtained by diluting GST-hLGK1 obtained in Reference Example 2A with measurement buffer (containing 50 mM HEPES (pH 7.4), 200 mM KCl, 5 mM MgCl2, 2.5 mM DTT and 50 μM 2′-(or -3′)-O—(N-methylanthraniloyl)adenosine 5′-triphosphate (Mant-ATP) (Jena Bioscience GmbH)) to 6 μg/mL was added to each well.
# Each well was stood at 37° C. for 10 min, and 25 mM D-glucose solution (10 μL) was added to start the reaction.
# Each well after the reaction was stood at 37° C. for 60 min, and the reaction was quenched by adding 25 μL of a quenching solution (containing 200 mM HEPES (pH 7.4), 20 mM MgCl2, 200 mM EDTA, 0.03% Triton-X 100, 0.3% Coating 3 reagent (Caliper Life Sciences, Inc.)).
# Mant-ATP (substrate) and Mant-ADP (reaction resultant product) were separated from each well after the reaction by a microchip type capillary electrophoresis apparatus 250 HTS (Caliper Life Sciences, Inc.). The reaction rate [(reaction resultant product peak height)/(reaction resultant product peak height+substrate peak height)×100(%)] was calculated from the ratio of the substrate peak height and reaction resultant product peak height obtained by fluorescence detection (excitation wavelength 355 nm, measurement wavelength 460 nm) and used as the index of GK activity.
# As a control group, the reaction rate was calculated in the same manner as above except that “solution in 50% dimethyl sulfoxide” was used instead of “solution of test compound in 50% dimethyl sulfoxide”.
# The percentage obtained by dividing the reaction rate of the well added with the test compound (test compound addition group) by the reaction rate of the well added with 50% solution in dimethyl sulfoxide alone (control group) was taken as the GK activity value of the test compound, and the concentration of the test compound necessary for activating 50% of the maximum value of the activity value is shown as EC50 value.
EC50 [1] [nM],melting point [°C],Compound
77,,"CN(c1cccc2cc(-c3nccs3)[nH]c12)S(=O)(=O)c1cccs1 [Example 97, N-Methyl-N-[2-(1,3-thiazol-2-yl)-1H-indol-7-yl]thiophene-2-sulfonamide]"
110,,"O=S(=O)(Nc1cccc2cc(C3=NCCS3)[nH]c12)c1cccs1 [Example 3, N-[2-(4,5-dihydro-1,3-thiazol-2-yl)-1H-indol-7-yl]thiophene-2-sulfonamide]"
22,,"CN(c1cc(OC(F)(F)F)cc2cc(C3=NCCS3)[nH]c12)S(=O)(=O)c1cccs1 [Example 169, N-[2-(4,5-dihydro-1,3-thiazol-2-yl)-5-(trifluoromethoxy)-1H-indol-7-yl]-N-methylthiophene-2-sulfonamide]"
34,,"CCN(c1cccc2cc(C3=NCCS3)[nH]c12)S(=O)(=O)c1cccs1 [Example 104, N-[2-(4,5-Dihydro-1,3-thiazol-2-yl)-1H-indol-7-yl]-N-ethylthiophene-2-sulfonamide]"
,161 to 162,"Cc1nc(-c2cc3cccc(N(C)S(=O)(=O)c4cccs4)c3[nH]2)cs1 [Example 173, N-Methyl-N-[2-(2-methyl-1,3-thiazol-4-yl)-1H-indol-7-yl]thiophene-2-sulfonamide]"
27,,"CN(c1cccc2cc(C3=NCCS3)[nH]c12)S(=O)(=O)c1cccs1 [Example 86, N-[2-(4,5-Dihydro-1,3-thiazol-2-yl)-1H-indol-7-yl]-N-methylthiophene-2-sulfonamide]"
80,,"CN(c1cccc2cc(-c3ncc(CCC#N)s3)[nH]c12)S(=O)(=O)c1cccs1 [Example 151, N-{2-[5-(2-Cyanoethyl)-1,3-thiazol-2-yl]-1H-indol-7-yl}-N-methylthiophene-2-sulfonamide]"
48,,"CCOC(=O)Cc1cnc(-c2cc3cccc(N(C)S(=O)(=O)c4cccs4)c3[nH]2)s1 [Example 137, Ethyl (2-{7-[methyl(2-thienylsulfonyl)amino]-1H-indol-2-yl}-1,3-thiazol-5-yl)acetate]"
,162 to 163,"CNc1nc(-c2cc3cccc(N(C)S(=O)(=O)c4cccs4)c3[nH]2)cs1 [Example 174, N-Methyl-N-{2-[2-(methylamino)-1,3-thiazol-4-yl]-1H-indol-7-yl}thiophene-2-sulfonamide]"
510,,"CN(c1cccc2cc(-c3nccs3)[nH]c12)S(=O)(=O)c1nccn1C [Example 209, N,1-Dimethyl-N-[2-(1,3-thiazol-2-yl)-1H-indol-7-yl]-1H-imidazole-2-sulfonamide]"
,159 to 160,"Cc1ccc(N(C)S(=O)(=O)c2cccs2)c2[nH]c(-c3nccs3)cc12 [Example 177, N-Methyl-N-[4-methyl-2-(1,3-thiazol-2-yl)-1H-indol-7-yl]thiophene-2-sulfonamide]"
,184 to 185,"Cc1ccc(N(C)S(=O)(=O)c2cccs2)c2[nH]c(-c3ncc(CO)s3)cc12 [Example 245, N-{2-[5-(Hydroxymethyl)-1,3-thiazol-2-yl]-4-methyl-1H-indol-7-yl}-N-methylthiophene-2-sulfonamide]"
28,,"CN(c1cc(F)cc2cc(C3=NCCS3)[nH]c12)S(=O)(=O)c1cccs1 [Example 165, N-[2-(4,5-dihydro-1,3-thiazol-2-yl)-5-fluoro-1H-indol-7-yl]-N-methylthiophene-2-sulfonamide]"
19,,"CN(c1ccc(Cl)c2cc(-c3ncc(CO)s3)[nH]c12)S(=O)(=O)c1cccs1 [Example 261, N-{4-chloro-2-[5-(hydroxymethyl)-1,3-thiazol-2-yl]-1H-indol-7-yl}-N-methylthiophene-2-sulfonamide]"
1200,,"O=S(=O)(Nc1cccc2cc(C3=NCCO3)[nH]c12)c1cccs1 [Example 5, N-[2-(4,5-Dihydro-1,3-oxazol-2-yl)-1H-indol-7-yl]thiophene-2-sulfonamide]"
180,,"CN(c1cccc2cc(-c3ncc(CN4CCOCC4)s3)[nH]c12)S(=O)(=O)c1cccs1 [Example 146, N-Methyl-N-{2-[5-(morpholin-4-ylmethyl)-1,3-thiazol-2-yl]-1H-indol-7-yl}thiophene-2-sulfonamide]"
1700,,"Cc1c(C2=NCCS2)[nH]c2c(NS(=O)(=O)c3cccs3)cccc12 [Example 26, N-[2-(4,5-Dihydro-1,3-thiazol-2-yl)-3-methyl-1H-indol-7-yl]thiophene-2-sulfonamide]"

# Continued, compound first:
Compound,EC50 [1] [nM],melting point [°C]
"CCN(c1cccc2cc(-c3ncc(COc4ccc(C(=O)O)cc4)s3)[nH]c12)S(=O)(=O)c1cccs1 [Example 280, 4-[(2-{7-[ethyl(2-thienylsulfonyl)amino]-1H-indol-2-yl}-1,3-thiazol-5-yl)methoxy]benzoic acid]",35,
"O=S(=O)(Nc1cccc2cc(-c3ccccn3)[nH]c12)c1cccs1 [Example 8, N-[2-(Pyridin-2-yl)-1H-indol-7-yl]thiophene-2-sulfonamide]",1500,
"Cc1ccc(N(C)S(=O)(=O)c2cccs2)c2[nH]c(C(=O)O)cc12 [Example 175, 4-Methyl-7-[methyl (2-thienylsulfonyl)amino]-1H-indole-2-carboxylic acid]",,223 to 225
"CCCSc1ccc(NS(=O)(=O)c2cccs2)c2[nH]c(C(=O)OCC)cc12 [Example 65, Ethyl 4-(propylthio)-7-[(2-thienylsulfonyl)amino]-1H-indole-2-carboxylate]",390,
"O=S(=O)(Nc1cccc2cc(-c3ncon3)[nH]c12)c1cccs1 [Example 17, N-[2-(1,2,4-Oxadiazol-3-yl)-1H-indol-7-yl]thiophene-2-sulfonamide]",4800,
"CN(c1cc(OC(F)(F)F)cc2cc(C(=O)O)[nH]c12)S(=O)(=O)c1cccs1 [Example 167, 7-[Methyl(2-thienylsulfonyl)amino]-5-(trifluoromethoxy)-1H-indole-2-carboxylic acid]",,245 to 246
"O=S(=O)(Nc1cccc2cc(-c3nccs3)[nH]c12)c1cccs1 [Example 7, N-[2-(1,3-Thiazol-2-yl)-1H-indol-7-yl]thiophene-2-sulfonamide]",240,
"CCOC(=O)c1[nH]c2c(NS(=O)(=O)c3cccs3)cccc2c1C [Example 23, Ethyl 3-methyl-7-[(2-thienylsulfonyl)amino]-1H-indole-2-carboxylate]",2700,
"CCOC(=O)c1cc2c(C)ccc(N(CC)S(=O)(=O)c3cccs3)c2[nH]1 [Example 246, Ethyl 7-[ethyl(2-thienylsulfonyl)amino]-4-methyl-1H-indole-2-carboxylate]",,148 to 149
"CCN(c1ccc(C)c2cc(-c3ncc(CO)s3)[nH]c12)S(=O)(=O)c1cccs1 [Example 250, N-Ethyl-N-{2-[5-(hydroxymethyl)-1,3-thiazol-2-yl]-4-methyl-1H-indol-7-yl}thiophene-2-sulfonamide]",,166 to 167
"CCOC(=O)c1cc2c(C)c(C)cc(N(CC)S(=O)(=O)c3cccs3)c2[nH]1 [Example 251, Ethyl 7-[ethyl(2-thienylsulfonyl)amino]-4,5-dimethyl-1H-indole-2-carboxylate]",,134 to 135
"O=C1CCCc2c1[nH]c1c(NS(=O)(=O)c3cccs3)cccc21 [Example 11, N-(1-Oxo-2,3,4,9-tetrahydro-1H-carbazol-8-yl) thiophene-2-sulfonamide]",1400,
"Cc1cc(NS(=O)(=O)c2cccs2)c2[nH]c3c(c2c1)CCNC3=O [Example 52, N-(6-Methyl-1-oxo-2,3,4,9-tetrahydro-1H-β-carbolin-8-yl)thiophene-2-sulfonamide]",2000,
